ChEMBL document CHEMBL5625206, “Design, synthesis, and evaluation of novel pleuromutilin aryl acrylate derivatives as promising broad-spectrum antibiotics especially for combatting multi-drug resistant gram-negative bacteria” (Eur J Med Chem, 2023)
≈ marks a conversion by molar mass, not a printed value. Calls of active or inactive are those of the source. No cut-off for these calls is given here.

Assays:
[1] = Clearance in fasted Sprague-Dawley rat at 1 mg/kg, iv by LC-MS/MS analysis; assay type: ADME, organism-based; details: in vivo
[2] = system: Escherichia coli; test: Antibacterial activity against Escherichia coli ATCC 25922 assessed as bacterial growth inhibition incubated for 24 hrs by CLSI based broth microdilution method; assay type: functional
[3] = Toxicity in fasted female Sprague-Dawley rat assessed as body weight at 148 mg/kg, IG measured after 7 days (reference value: 188.2 +/- 9.2 g); assay type: organism-based; details: in vivo, po, 168 h, time 7 day
[4] = system: Escherichia coli; test: Bactericidal activity against Escherichia coli ATCC 25922 assessed as reduction in colony count at 2 times MIC incubated for 24 hrs by time kill assay relative to control; assay type: functional
[5] = Toxicity in fasted female Sprague-Dawley rat assessed as animal growth rate at 331 mg/kg, IG measured for 14 days (reference value: 29.85 +/- 4.97 g); assay type: organism-based; details: in vivo, po, 336 h, time 14 day
[6] = system: Staphylococcus aureus; test: Induction of extracellular electrical conductivity in methicillin-resistant Staphylococcus aureus ATCC 33591 at MIC incubated for 8 hrs relative to control
[7] = system: Staphylococcus aureus; test: Induction of cell damage in methicillin-resistant Staphylococcus aureus ATCC 33591 assessed as fold increase in extracellular ATP concentration at MIC incubated for 30 mins by fluorescence based analysis relative to control; assay type: functional; details: 0.5 h
[8] = Toxicity in fasted male Sprague-Dawley rat assessed as body weight at 500 mg/kg, IG measured after 7 days (reference value: 260.5 +/- 12.7 g); assay type: organism-based; details: in vivo, po, 168 h, time 7 day
[9] = Toxicity in fasted Sprague-Dawley rat assessed as mortality rate at 500 mg/kg, IG measured for 14 days; assay type: organism-based; details: in vivo, po, time 14 day
[10] = system: Staphylococcus aureus; test: Antibacterial activity against methicillin-resistant Staphylococcus aureus ATCC 33591 infected in neutropenic Kunming mouse model assessed as reduction in infection-induced kidney damage at 20 mg/kg, ip measured after 7 days; assay type: functional, organism-based; details: time 7.0 day
[11] = system: Escherichia coli; test: Bactericidal activity against Escherichia coli ATCC 25922 at 4 to 8 times MIC incubated for 8 to 12 hrs by time kill assay relative to control; assay type: functional; details: time 8-12 hrs
[12] = Toxicity in fasted male Sprague-Dawley rat assessed as relative liver weight ratio at 148 mg/kg, IG measured for 14 days (reference value: 3.616 +/- 0.286); assay type: organism-based; details: in vivo, po, 336 h, time 14 day
[13] = system: Escherichia coli; test: Disruption of cell membrane integrity in Escherichia coli ATCC 25922 assessed as wrinkled cell surface at MIC incubated for 4 hrs by FESEM analysis; assay type: functional, organism-based
[14] = system: Staphylococcus aureus; test: Antibacterial activity against methicillin-resistant Staphylococcus aureus ATCC 33591 infected in neutropenic Kunming mouse model assessed as reduction in infection-induced inflammatory cell inflammation in kidney at 10 mg/kg, ip measured after 7 days; assay type: functional, organism-based; details: time 7.0 day
[15] = Toxicity in fasted female Sprague-Dawley rat assessed as relative kidney weight ratio at 224 mg/kg, IG measured for 14 days (reference value: 0.802 +/- 0.031); assay type: organism-based; details: in vivo, po, 336 h, time 14 day
[16] = Toxicity in fasted male Sprague-Dawley rat assessed as relative testis weight ratio at 100 mg/kg, IG measured for 14 days (reference value: 0.993 +/- 0.052); assay type: organism-based; details: in vivo, po, 336 h, time 14 day
[17] = Toxicity in fasted female Sprague-Dawley rat assessed as body weight at 100 mg/kg, IG measured after 7 days (reference value: 188.2 +/- 9.2 g); assay type: organism-based; details: in vivo, po, 168 h, time 7 day
[18] = Toxicity in fasted female Sprague-Dawley rat assessed as relative lung weight ratio at 331 mg/kg, IG measured for 14 days (reference value: 0.534 +/- 0025); assay type: organism-based; details: in vivo, po, 336 h, time 14 day
[19] = system: Staphylococcus aureus; test: Induction of extracellular electrical conductivity in methicillin-resistant Staphylococcus aureus ATCC 33591 at 2 times MIC incubated for 8 hrs relative to control
[20] = Toxicity in fasted male Sprague-Dawley rat assessed as animal growth rate at 500 mg/kg, IG measured for 14 days (reference value: 46.53 +/- 3.19 g); assay type: organism-based; details: in vivo, po, 336 h, time 14 day
[21] = Toxicity in fasted male Sprague-Dawley rat assessed as animal growth rate at 224 mg/kg, IG measured for 14 days (reference value: 46.53 +/- 3.19 g); assay type: organism-based; details: in vivo, po, 336 h, time 14 day
[22] = system: Escherichia coli; test: Disruption of cell membrane integrity in Escherichia coli ATCC 25922 at 4 times MIC incubated for 4 hrs by FESEM analysis; assay type: functional, organism-based
[23] = Toxicity in fasted male Sprague-Dawley rat assessed as relative kidney weight ratio at 500 mg/kg, IG measured for 14 days (reference value: 0.820 +/- 0.072); assay type: organism-based; details: in vivo, po, 336 h, time 14 day
[24] = system: Staphylococcus aureus; test: Antibacterial activity against methicillin-resistant Staphylococcus aureus ATCC 33591 infected in neutropenic Kunming mouse model assessed as reduction in infection-induced inflammatory cell infiltration in kidney at 20 mg/kg, ip measured after 7 days; assay type: functional, organism-based; details: time 7.0 day
[25] = Toxicity in fasted female Sprague-Dawley rat assessed as relative heart weight ratio at 148 mg/kg, IG measured for 14 days (reference value: 0.429 +/- 0.016); assay type: organism-based; details: in vivo, po, 336 h, time 14 day
[26] = system: Staphylococcus aureus; test: Inhibition of biofilm formation of methicillin-resistant Staphylococcus aureus ATCC 33591 at 8 times MIC incubated for 24 hrs by crystal violet staining based analysis relative to control; assay type: functional
[27] = system: Staphylococcus aureus; test: Antibacterial activity against methicillin-resistant Staphylococcus aureus ATCC 33591 infected in neutropenic Kunming mouse model administered intraperitoneally measured after 7 days; assay type: functional; details: ATCC 33591, 168 h, route ip, time 7 day
[28] = Toxicity in fasted female Sprague-Dawley rat assessed as body weight at 500 mg/kg, IG measured after 7 days (reference value: 188.2 +/- 9.2 g); assay type: organism-based; details: in vivo, po, 168 h, time 7 day
[29] = Toxicity in fasted male Sprague-Dawley rat assessed as relative kidney weight ratio at 331 mg/kg, IG measured for 14 days (reference value: 0.820 +/- 0.072); assay type: organism-based; details: in vivo, po, 336 h, time 14 day
[30] = system: Staphylococcus aureus; test: Antibacterial activity against methicillin-resistant Staphylococcus aureus 575 clinical isolate assessed as bacterial growth inhibition incubated for 24 hrs by CLSI based broth microdilution method; assay type: functional
[31] = Toxicity in fasted male Sprague-Dawley rat assessed as relative testis weight ratio at 224 mg/kg, IG measured for 14 days (reference value: 0.993 +/- 0.052); assay type: organism-based; details: in vivo, po, 336 h, time 14 day
[32] = Toxicity in fasted female Sprague-Dawley rat assessed as body weight at 500 mg/kg, IG measured after 14 days (reference value: 214.3 +/- 9.8 g); assay type: organism-based; details: in vivo, po, 336 h, time 14 day
[33] = Toxicity in fasted male Sprague-Dawley rat assessed as relative liver weight ratio at 500 mg/kg, IG measured for 14 days (reference value: 3.616 +/- 0.286); assay type: organism-based; details: in vivo, po, 336 h, time 14 day
[34] = system: Staphylococcus aureus; test: Antibacterial activity against methicillin-resistant Staphylococcus aureus ATCC 33591 infected in neutropenic Kunming mouse model assessed as reduction in infection-induced inflammatory cell inflammation in lung at 10 mg/kg, ip measured after 7 days; assay type: functional, organism-based; details: time 7.0 day
[35] = system: Staphylococcus aureus; test: Antibacterial activity against methicillin-resistant Staphylococcus aureus ATCC 33591 infected in neutropenic Kunming mouse model assessed as restoration of infection- induced change in cell morphology in kidney at 20 mg/kg, ip measured after 7 days; assay type: functional, organism-based; details: time 7.0 day

C=C[C@]1(C)C[C@@H](OC(=O)COC(=O)/C=C/c2ccc(N(C)C)cc2)[C@]2(C)[C@H](C)CC[C@]3(CCC(=O)[C@H]32)[C@@H](C)[C@@H]1O
clearance [1]: 35 mL/min/kg | MIC [2]: 16 µg/mL (≈ 29 µM) | Activity [3]: 181.4 g | Activity [4]: 6.14 log10CFU/ml | Activity [5]: 27.6% | Activity [6]: 14.9% | fold change (FC) [7]: 4.01 | Activity [8]: 251.3 g | mortality at 336 h [9]: 10% | Activity [10]: Active | Activity [11]: 100% | Ratio [12]: 3.59 | Activity [13]: Active | Activity [14]: inactive | Ratio [15]: 0.839 | Ratio [16]: 1.048 | Activity [17]: 188.2 g | Ratio [18]: 0.528 | Activity [19]: 25.63% | Activity [20]: 43.65% | Activity [21]: 45.2% | Activity [22]: Active | Ratio [23]: 0.759 | Activity [24]: Active | Ratio [25]: 0.447 | inhibition (INH) [26]: 97.64% | ED50 [27]: 9.04 mg/kg | Activity [28]: 181.3 g | Ratio [29]: 0.831 | MIC [30]: 8 µg/mL (≈ 14.5 µM) | Ratio [31]: 0.981 | Activity [32]: 207.7 g | Ratio [33]: 3.551 | Activity [34]: inactive | Activity [35]: Active
